Columns and labels:
[1] = tested on: human ventricular fibroblasts; assay: TGF-b1-induced differentiation of human ventricular fibroblasts to myofibroblasts (immunofluorescence, α-SMA); assay type: cell-based; details: AB1+TGFβ1 vs TGFβ1; immunofluorescence actin/α-SMA/DAPI (FIG. 5A-5C)
WT mice subjected to MI = assay: Myocardial infarction (LAD ligation) in WT mice treated orally with TRPV4 antagonist; echocardiography and histology; assay type: in vivo
Experimental: WT mice were subjected to MI by ligating LAD. MI mice were then given orally a specific TRPV4 antagonist, GSK2193874 (GSK2) (10 mg/Kg/day) or vehicle (0.01% DMSO/water).
Orally active TRPV4 antagonist GSK2193874 was given immediately after MI surgery and followed for 5 weeks.

[2] = given immediately after MI surgery, followed for 5 weeks, vs WT or vehicle treated mice

| Compound | TGF-b1-induced differentiation of human ventricular fibroblasts [1] | cardiac fibrosis (Masson's trichrome staining) at the infarct zone and remote zone (WT mice subjected to MI; GSK2 treated-MI hearts vs Vehicle treated-MI hearts (FIG. 16)) | ejection fraction (WT mice subjected to MI; [2]) | fractional shortening (WT mice subjected to MI; [2]) | cardiac function: ejection fraction (WT mice subjected to MI; post-MI WT mice, 10 mg/Kg/day orally vs vehicle (0.01% DMSO/water), echocardiography (FIG. 11A)) | cardiac function: fractional shortening (WT mice subjected to MI; post-MI WT mice, 10 mg/Kg/day orally vs vehicle (0.01% DMSO/water), echocardiography (FIG. 11B)) |
| --- | --- | --- | --- | --- | --- | --- |
| CC(C)NCCN(C(C)C)S(=O)(=O)c1ccc(Cl)cc1Cl [AB159908, 2,4-dichloro-N-isopropyl-N-(2-isopropylaminoethyl)benzenesulfonamide] | attenuation |  |  |  |  |  |
| O=C(NC1(c2ccccc2)CC1)c1c(CN2CCC(N3CCCCC3)CC2)c(-c2cccc(C(F)(F)F)c2)nc2cc(Br)ccc12 [GSK2193874, 3-([1,4′-bipiperidin]-1′-ylmethyl)-7-bromo-N-(1-phenylcyclopropyl)-2-[3-(trifluoromethyl)phenyl]-4-quinolinecarboxamide] |  | significantly reduced | preserved | preserved | preserved | preserved |
